Data taken from PMC12703733, “Probing Guanidino Pendant or Bridged Groups in Cyclic Antimicrobial Peptides Derived from Temporin L: A Strategy to Improve Efficacy against Gram-Negative Bacteria” (Journal of Medicinal Chemistry, 2025).
In brackets after ≈: the same amount, converted by molar mass. Like-named read-outs stand apart in the source and are kept apart here. Bridge positions count the residues as written; N and C are the ends. Square brackets hold non-standard residues; d marks the D form. Peptide text beside a SMILES is read from it. Phe(4-guanidino) = N=C(N)Nc1ccc(C[C@H](N)C(=O)O)cc1

Assays:
[1] = in vitro; type: in vitro ADME; details: isolated enzyme chymotrypsin, pH 7.8
Protocol: Peptide stability was evaluated by modifying previously described procedures. , The assays were performed in human serum and in the presence of proteolytic enzymes such as trypsin and chymotrypsin. For human serum stability, 2 mM peptide stock solutions were prepared in water and mixed with human serum (from male AB plasma, USA origin, sterile-filtered, Merck/Sigma-Aldrich, USA) to obtain a final concentration of 200 μM [human plasma/stock solution (9:1, v/v)]. The mixtures were incubated at 37 ± 1 °C, and 50 μL aliquots were taken at predetermined time intervals (0, 1, 2, 4, 8, and 24 h). Protease activity was quenched by adding 100 μL of acetonitrile (MeCN). The resulting cloudy suspensions were cooled to 4 °C for 30 min and centrifugated at 12,000 rpm for 10 min to remove the serum proteins. Then, the supernatants were analyzed by analytical HPLC (Shimadzu Nexera Liquid Chromatograph LC-30AD) which was equipped with a Phenomenex Kinetex reversed-phase column (C18, 5 μm, 100 Å, 150 mm × 4.6 mm) with a flow rate of 1 mL/min using a gradient of MeCN (0.1% TFA) in water (0.1% TFA), from 10 to 70% over 15 min, and UV detection at 220 nm. For enzyme stability, each peptide peptide (200 μM) was incubated with trypsin (0.5 μM) in PBS 1× (pH 7.2) or with chymotrypsin (0.005 μM) in Tris–HCl (100 mM, pH 7.8). Samples (50 μL) were collected at 0, 1, 2, 4, and 24 h, quenched with 0.5% TFA in water, and analyzed by HPLC under chromatographic conditions as described above. All experiments were conducted in triplicate. The percentage of intact peptides at each time point was determined by integrating the corresponding HPLC peak areas.

[2] = test system: S. aureus ATCC 25923; type: cell-based
Protocol: The ability of peptides to alter the bacterial membrane permeability of planktonic cells of S. aureus ATCC 25923 and P. aeruginosa ATCC 27853 was determined by the Sytox Green assay. Approximately 1 × 10^6 cells in 100 μL of PBS were combined with 1 μM Sytox Green in the dark for 5 min. The fluorescence intensity was monitored using a microplate reader (Infinite M200, Tecan), with excitation and emission at λ = 485 and 535 nm, respectively. Peptides were added (time = 0) at three different concentrations (i.e., 3.12, 6.25, and 12.5 μM). Increase in the fluorescence intensity is due to the binding of the dye to intracellular nucleic acids. Controls consisted of cells that were not exposed to the peptides. The values correspond to one representative experiment out of three independent experiments.

[3] = circular dichroism; details: water; pH ns; 25 °C; 150 uM
[4] = test system: E. coli ATCC 25922; test: microbe, parasite or virus in culture; type: cell-based; details: ATCC 25922
Summary of the method: (§1)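 Each MIC reflects three identical readings of four independent runs. Plates held at 37 °C after mid-log bacteria in MH medium were adjusted to 2 × 10^6 cell/mL.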

[5] = test system: E. coli D21; test: microbe, parasite or virus in culture; type: cell-based; details: D21
Summary of the method: as §1

[6] = test system: B. megaterium BM11; test: microbe, parasite or virus in culture; type: cell-based; details: BM11
Summary of the method: as §1

[7] = test system: S. agalactiae ATCC 27591; test: microbe, parasite or virus in culture; type: cell-based; details: ATCC 27591
Summary of the method: as §1

[8] = test system: S. epidermidis ATCC 12228; test: microbe, parasite or virus in culture; type: cell-based; details: ATCC 12228
Summary of the method: as §1

[9] = test system: A. baumannii ATCC 19606; test: microbe, parasite or virus in culture; type: cell-based; details: ATCC 19606
Summary of the method: as §1

[10] = test system: S. aureus ATCC 25923; test: microbe, parasite or virus in culture; type: cell-based; details: ATCC 25923
Summary of the method: as §1

[11] = test system: P. aeruginosa ATCC 27853; test: microbe, parasite or virus in culture; type: cell-based; details: ATCC 27853
Summary of the method: as §1

[12] = test system: E. faecalis ATCC 29212; test: microbe, parasite or virus in culture; type: cell-based; details: ATCC 29212
Summary of the method: as §1

[13] = type: cell-based; details: Cell viability (%)
Protocol: For the evaluation of peptides’ cytotoxicity, the human immortalized keratinocytes (HaCaT cells), purchased from AddexBio (San Diego, CA, USA), and BEAS-2B were used. HaCaT cells were cultured in Dulbecco’s modified Eagle’s medium supplemented with 4 mM glutamine (DMEM), 10% heat-inactivated fetal bovine serum (FBS), and 0.1 mg/mL of penicillin and streptomycin, at 37 °C and 5% CO2. BEAS-2B cells were cultured in RPMI, supplemented with 2 mM glutamine (DMEM), 10% heat-inactivated fetal bovine serum (FBS), 1 mM sodium pyruvate, and 0.1 mg/mL of penicillin and streptomycin, at 37 °C and 5% CO2. Cytotoxicity was tested in vitro using a colorimetric assay that relies on the intracellular reduction of the yellow 3-(4,5-dimethylthiazol-2-yl)-2,5-diphenyltetrazolium bromide salt (MTT) by mitochondrial dehydrogenases of metabolically active cells in formazan crystals (purple). About 4 × 10^4 HaCaT and BEAS-2B cells, suspended in DMEM supplemented with 2% FBS, were plated in triplicate wells of a 96-well microtiter plate. The plate was incubated overnight at 37 °C and 5% CO2. Then, the cells were treated with different concentrations of the peptide (from 100 to 3.12 μM) in a fresh serum-free medium for 2 h and for a longer time (24 h). Following peptide treatment, the medium was removed, and MTT (0.5 mg/mL) solution in Hank’s buffer (136 mM NaCl, 4.2 mM Na2HPO4, 4.4 mM KH2PO4, 5.4 mM KCl, 4.1 mM NaHCO3, pH 7.2, supplemented with 20 mM D-glucose) was added to each well of the plate, that was then incubated for 4 h at 37 °C and 5% CO2. The purple formazan crystals were dissolved using acidified 2-propanol and a microplate reader (Infinite M200; Tecan, Salzburg, Austria) was used to measure the absorbance of each well at 570 nm. The percentage of cell viability was calculated compared to the control, which consisted of cells without any peptide treatment (corresponding to 100% viability) and all data represent the mean of three independent experiments ± SEM.

[14] = test system: human keratinocytes (HaCaT cells); type: cell-based; details: human, 24 h
Summary of the method: (§2)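 Cells were plated at about 4 × 10^4/well in 2% FBS, then exposed to peptide at 100–3.12 μM in serum-free medium for 2 h or 24 h. Viability was measured by MTT reduction (0.5 mg/mL, 4 h, absorbance 570 nm) relative to untreated cells, as the mean ± SEM of three experiments.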

[15] = type: cell-based, human; details: human
Summary of the method: as §2

With `CC[C@H](C)[C@H](NC(=O)[C@H](CCCNC(=N)N)NC(=O)[C@H]1CCC(=O)NCCCC[C@H](NC(=O)[C@H](Cc2ccccc2)NC(=O)[C@H](Cc2c[nH]c3ccccc23)NC(=O)[C@@H]2CCCN2C(=O)[C@@H](NC(=O)[C@@H](N)Cc2ccc(NC(=N)N)cc2)C(C)C)C(=O)N[C@@H](CCCCN)C(=O)N[C@@H](Cc2ccccc2)C(=O)N[C@H](CC(C)C)C(=O)N1)C(=O)N[C@@H](CC(C)C)C(N)=O` [Peptide 6, (p-guanidino)FVPWF[KKFle]RIL] (H-[Phe(4-guanidino)]VPWFKKF[dL][dE]RIL-NH2; lactam 6-10) the remaining at 4 h, 200 μM [1] was ~20%, the “membrane permeabilization, Sytox Green fluorescence (in words)” value [2] was “lower effect” and the helicity [3] was 16%. The MIC [4] was 6.25 µM (≈ 11 µg/mL), the MIC [5] was 3.12 µM (≈ 5.49 µg/mL) and the MIC [6] was 0.78 µM (≈ 1.37 µg/mL). It also gave an MIC [7] of 1.56 µM (≈ 2.75 µg/mL), an MIC [8] of 3.12 µM (≈ 5.49 µg/mL) and an MIC [9] of 3.12 µM (≈ 5.49 µg/mL). It also gave an MIC [10] of 25 µM (≈ 44 µg/mL), an MIC [11] of 25 µM (≈ 44 µg/mL) and an MIC [12] of 12.5 µM (≈ 22 µg/mL). It also gave a viability at 2 h, 3.12 µM [13] of 111%, a viability at 2 h, 6.25 µM [13] of 119% and a viability at 2 h, 12.5 µM [13] of 114%. It also gave a viability at 2 h, 25 µM [13] of 100%, a viability at 2 h, 50 µM [13] of 30% and a viability at 24 h, 3.12 µM [13] of 104%. For the same molecule, the viability at 24 h, 6.25 µM [13] was 111%, the viability at 24 h, 12.5 µM [13] was 111% and the viability at 24 h, 25 µM [13] was 107%. For the same molecule, the viability at 24 h, 50 µM [13] was 33%, the viability at 24 h, 100 µM [13] was 4% and the CC50 [14] was 59.6 µM. For the same molecule, the “Cell viability (%)” value ([14]; 50 µM) was 81 ± 4%, the CC50 at 24 h ([15]; CC50) was > 50 µM and the viability at 2 h, 3.12 µM ([15]; Cell viability (%)) was 102%. It also gave a viability at 2 h, 6.25 µM ([15]; Cell viability (%)) of 101%, a viability at 2 h, 12.5 µM ([15]; Cell viability (%)) of 101% and a viability at 2 h, 25 µM ([15]; Cell viability (%)) of 101%. The viability at 2 h, 100 µM ([15]; Cell viability (%)) was 13%, the viability at 24 h, 3.12 µM ([15]; Cell viability (%)) was 100 ± 2% and the viability at 24 h, 6.25 µM ([15]; Cell viability (%)) was 93 ± 2%. The viability at 24 h, 12.5 µM ([15]; Cell viability (%)) was 86 ± 4%, the viability at 24 h, 25 µM ([15]; Cell viability (%)) was 86 ± 2% and the viability at 24 h, 50 µM ([15]; Cell viability (%)) was > 70%. It also gave a viability at 24 h, 100 µM ([15]; Cell viability (%)) of 2 ± 1%.
